Test results as given in patent publication US6458026B1, “Integrin-targeting vectors having transfection activity” (ICH Productions Limited, priority 1997, dated 2002).
Like-named read-outs stand apart in the source and are kept apart here.

Columns and labels:
integrins = conditions: cited from earlier work
[1] = system: human lung fibroblasts (HFL-1 cells); experiment: Antisense transfection: thrombin-induced proliferation of HFL-1 cells; format: cell-based; conditions: thrombin-treated cells
Experimental: Thrombin stimulates proliferation of human lung fibroblasts. Thrombin-treated human lung fibroblasts (HFL-1 cells) proliferated 53% in response to thrombin. 24 hours before treatment with thrombin, HFL-1 cells were treated with an LID complex comprising [K]16-peptide 6, lipofectin and a 20-mer antisense oligonucleotide directed against the thrombin receptor PAR-1 in the optimal ratio and mixing order prepared as described in the Materials and Methods section and the Examples above. The antisense oligonucleotide-containing complex was in contact with the cells for 4 hours. 24 hours after the start of the treatment with the complex, treatment with thrombin was carried out.

| Substance | integrin specificity (integrins) | integrin specificity (integrins; listed as peptide 5) | proliferation in response to thrombin [1] [%] |
| --- | --- | --- | --- |
| GACDCRGDCFCA [Peptide 5] | Peptide 5 (αv) | has high affinity for integrin αv but is not αv-specific |  |
| GACRGDMFGCA [Peptide 1] | has affinity for α5 and αv integrins but is non-specific |  |  |
| GACRRETAWACG [Peptide 6] | α5β1-specific |  |  |
| thrombin |  |  | 53 |
